According to PubChem BioAssay (NCI):
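The compound was tested at five concentrations on cells cultured in 96-well plates, with a 48-hour exposure period. GI50: concentration for 50% inhibition of growth. TGI is the concentration that stops growth completely.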

How the values were obtained:
Assay in all cases: NCI-60 cell line screen, 48 h
[1] = test system: CAKI-1 renal
[2] = test system: IGROV1 ovarian
[3] = test system: SK-MEL-2 melanoma
[4] = test system: HT29 colon
[5] = test system: T-47D breast
[6] = test system: PC-3 prostate
[7] = test system: SN12C renal
[8] = test system: MALME-3M melanoma
[9] = test system: HCT-15 colon
[10] = test system: NCI-H522 lung
[11] = test system: SR leukemia
[12] = test system: UACC-62 melanoma
[13] = test system: EKVX NSCLC
[14] = test system: SF-539 CNS
[15] = test system: SNB-75 CNS
[16] = test system: MDA-MB-231 breast
[17] = test system: HL-60(TB) leukemia
[18] = test system: CCRF-CEM leukemia
[19] = test system: SK-OV-3 ovarian
[20] = test system: SK-MEL-28 melanoma
[21] = test system: HOP-92 NSCLC
[22] = test system: TK-10 renal
[23] = test system: A549 NSCLC
[24] = test system: OVCAR-5 ovarian
[25] = test system: M14 melanoma
[26] = test system: MCF7 breast
[27] = test system: HCC-2998 colon
[28] = test system: BT-549 breast
[29] = test system: RXF 393 renal
[30] = test system: NCI-H460 lung
[31] = test system: HS 578T breast
[32] = test system: OVCAR-3 ovarian
[33] = test system: SNB-19 CNS
[34] = test system: SK-MEL-5 melanoma
[35] = test system: OVCAR-4 ovarian
[36] = test system: MDA-MB-435
[37] = test system: DU-145 prostate
[38] = test system: RPMI-8226 leukemia
[39] = test system: NCI-H226 lung
[40] = test system: MOLT-4 leukemia
[41] = test system: OVCAR-8 ovarian
[42] = test system: SW-620 colon
[43] = test system: NCI-H23 lung
[44] = test system: HOP-62 NSCLC
[45] = test system: U251 CNS
[46] = test system: UACC-257 melanoma
[47] = test system: HCT-116 colon
[48] = test system: UO-31 renal
[49] = test system: LOX IMVI melanoma
[50] = test system: SF-268 CNS
[51] = test system: NCI/ADR-RES ovarian
[52] = test system: A498 renal
[53] = test system: SF-295 CNS
[54] = test system: 786-0 renal
[55] = test system: ACHN renal
[56] = test system: COLO 205 colon
[57] = test system: KM12 colon
[58] = test system: K-562 leukemia

SMILES: CCN1Cc2c(/C=C/c3ccccc3)nc3ccc(OC)cc3c2N(c2cccc(Cl)c2)C1
- GI50 [1]: 1.51 µM
- TGI [1]: 3.57 µM
- GI50 [2]: 1.4 µM
- TGI [2]: 3.68 µM
- GI50 [3]: 1.72 µM
- TGI [3]: 3.56 µM
- GI50 [4]: 1.45 µM
- TGI [4]: 3.03 µM
- GI50 [5]: 1.74 µM
- TGI [5]: 4.18 µM
- GI50 [6]: 1.79 µM
- TGI [6]: 5.64 µM
- GI50 [7]: 2.43 µM
- TGI [7]: 7.82 µM
- GI50 [8]: 1.68 µM
- TGI [8]: 3.52 µM
- GI50 [9]: 1.74 µM
- TGI [9]: 3.63 µM
- GI50 [10]: 1.4 µM
- TGI [10]: 2.88 µM
- GI50 [11]: 1.71 µM
- TGI [11]: 5.53 µM
- GI50 [12]: 1.49 µM
- TGI [12]: 3.06 µM
- GI50 [13]: 1.79 µM
- TGI [13]: 3.9 µM
- GI50 [14]: 1.98 µM
- TGI [14]: 3.91 µM
- GI50 [15]: 1.8 µM
- TGI [15]: 6.1 µM
- GI50 [16]: 1.75 µM
- TGI [16]: 3.69 µM
- GI50 [17]: 2.08 µM
- TGI [17]: 5.66 µM
- GI50 [18]: 2.17 µM
- TGI [18]: 5.84 µM
- GI50 [19]: 1.88 µM
- TGI [19]: 4.4 µM
- GI50 [20]: 1.78 µM
- TGI [20]: 3.28 µM
- GI50 [21]: 1.62 µM
- TGI [21]: 3.77 µM
- GI50 [22]: 1.62 µM
- TGI [22]: 3.43 µM
- GI50 [23]: 1.99 µM
- TGI [23]: 3.96 µM
- GI50 [24]: 1.49 µM
- TGI [24]: 2.97 µM
- GI50 [25]: 2.04 µM
- TGI [25]: 4 µM
- GI50 [26]: 1.65 µM
- TGI [26]: 3.75 µM
- GI50 [27]: 1.64 µM
- TGI [27]: 3.14 µM
- GI50 [28]: 5.73 µM
- TGI [28]: 23 µM
- GI50 [29]: 2.07 µM
- TGI [29]: 3.69 µM
- GI50 [30]: 1.64 µM
- TGI [30]: 3.27 µM
- GI50 [31]: 1.75 µM
- TGI [31]: 4.88 µM
- GI50 [32]: 1.62 µM
- TGI [32]: 3.08 µM
- GI50 [33]: 2.13 µM
- TGI [33]: 5.15 µM
- GI50 [34]: 1.59 µM
- TGI [34]: 3 µM
- GI50 [35]: 2.8 µM
- TGI [35]: 8.44 µM
- GI50 [36]: 1.81 µM
- TGI [36]: 3.7 µM
- GI50 [37]: 1.94 µM
- TGI [37]: 3.47 µM
- GI50 [38]: 1.65 µM
- TGI [38]: 4.71 µM
- GI50 [39]: 1.65 µM
- TGI [39]: 3.5 µM
- GI50 [40]: 1.45 µM
- TGI [40]: 5.02 µM
- GI50 [41]: 1.84 µM
- TGI [41]: 4.29 µM
- GI50 [42]: 1.67 µM
- TGI [42]: 3.29 µM
- GI50 [43]: 1.67 µM
- TGI [43]: 4.2 µM
- GI50 [44]: 1.64 µM
- TGI [44]: 3.09 µM
- GI50 [45]: 1.71 µM
- TGI [45]: 3.3 µM
- GI50 [46]: 1.75 µM
- TGI [46]: 4.22 µM
- GI50 [47]: 1.67 µM
- TGI [47]: 3.8 µM
- GI50 [48]: 1.38 µM
- TGI [48]: 2.95 µM
- GI50 [49]: 1.7 µM
- TGI [49]: 3.51 µM
- GI50 [50]: 1.87 µM
- TGI [50]: 3.67 µM
- GI50 [51]: 2.1 µM
- TGI [51]: 5.22 µM
- GI50 [52]: 1.5 µM
- TGI [52]: 3.86 µM
- GI50 [53]: 1.69 µM
- TGI [53]: 3.6 µM
- GI50 [54]: 3.17 µM
- TGI [54]: 8.83 µM
- GI50 [55]: 1.61 µM
- TGI [55]: 3.08 µM
- GI50 [56]: 1.59 µM
- TGI [56]: 3 µM
- GI50 [57]: 1.81 µM
- TGI [57]: 3.49 µM

SMILES: Fc1cccc(-c2nc(-c3c[nH]c4ncccc34)cs2)c1
- GI50 [1]: > 100 µM
- TGI [1]: > 100 µM
- GI50 [2]: 8.15 µM
- TGI [2]: > 100 µM
- GI50 [3]: > 100 µM
- TGI [3]: > 100 µM
- GI50 [4]: > 100 µM
- TGI [4]: > 100 µM
- GI50 [5]: 2.34 µM
- TGI [5]: > 100 µM
- GI50 [6]: > 100 µM
- TGI [6]: > 100 µM
- GI50 [7]: > 100 µM
- TGI [7]: > 100 µM
- GI50 [8]: 5.62 µM
- TGI [8]: > 100 µM
- GI50 [9]: > 100 µM
- TGI [9]: > 100 µM
- GI50 [10]: > 100 µM
- TGI [10]: > 100 µM
- GI50 [11]: > 100 µM
- TGI [11]: > 100 µM
- GI50 [12]: > 100 µM
- TGI [12]: > 100 µM
- GI50 [13]: 2.46 µM
- TGI [13]: > 100 µM
- GI50 [14]: 70 µM
- TGI [14]: > 100 µM
- GI50 [15]: 8.34 µM
- TGI [15]: 42.8 µM
- GI50 [16]: 38.2 µM
- TGI [16]: > 100 µM
- GI50 [17]: > 100 µM
- TGI [17]: > 100 µM
- GI50 [18]: > 100 µM
- TGI [18]: > 100 µM
- GI50 [19]: 11.9 µM
- TGI [19]: 94.3 µM
- GI50 [20]: > 100 µM
- TGI [20]: > 100 µM
- GI50 [21]: 0.128 µM
- TGI [21]: 18.6 µM
- GI50 [22]: 25.9 µM
- TGI [22]: > 100 µM
- GI50 [23]: 17.7 µM
- TGI [23]: > 100 µM
- GI50 [24]: > 100 µM
- TGI [24]: > 100 µM
- GI50 [25]: 5.61 µM
- TGI [25]: > 100 µM
- GI50 [26]: 5.27 µM
- TGI [26]: > 100 µM
- GI50 [27]: > 100 µM
- TGI [27]: > 100 µM
- GI50 [28]: 44.8 µM
- TGI [28]: > 100 µM
- GI50 [29]: 23.1 µM
- TGI [29]: 90.8 µM
- GI50 [30]: 6.59 µM
- TGI [30]: > 100 µM
- GI50 [31]: 2.95 µM
- TGI [31]: 16.7 µM
- GI50 [32]: 60.5 µM
- TGI [32]: > 100 µM
- GI50 [33]: 22.6 µM
- TGI [33]: > 100 µM
- GI50 [34]: > 100 µM
- TGI [34]: > 100 µM
- GI50 [36]: > 100 µM
- TGI [36]: > 100 µM
- GI50 [37]: > 100 µM
- TGI [37]: > 100 µM
- GI50 [38]: > 100 µM
- TGI [38]: > 100 µM
- GI50 [39]: > 100 µM
- TGI [39]: > 100 µM
- GI50 [40]: > 100 µM
- TGI [40]: > 100 µM
- GI50 [41]: 42.4 µM
- TGI [41]: > 100 µM
- GI50 [42]: > 100 µM
- TGI [42]: > 100 µM
- GI50 [43]: 71.1 µM
- TGI [43]: > 100 µM
- GI50 [44]: 25.7 µM
- TGI [44]: > 100 µM
- GI50 [45]: 25 µM
- TGI [45]: > 100 µM
- GI50 [46]: > 100 µM
- TGI [46]: > 100 µM
- GI50 [47]: 7.9 µM
- TGI [47]: > 100 µM
- GI50 [48]: 33.4 µM
- TGI [48]: > 100 µM
- GI50 [49]: > 100 µM
- TGI [49]: > 100 µM
- GI50 [50]: 38.2 µM
- TGI [50]: > 100 µM
- GI50 [51]: > 100 µM
- TGI [51]: > 100 µM
- GI50 [53]: 36.8 µM
- TGI [53]: > 100 µM
- GI50 [54]: > 100 µM
- TGI [54]: > 100 µM
- GI50 [58]: > 100 µM
- TGI [58]: > 100 µM
- GI50 [55]: 9.68 µM
- TGI [55]: > 100 µM
- GI50 [56]: > 100 µM
- TGI [56]: > 100 µM
- GI50 [57]: > 100 µM
- TGI [57]: > 100 µM
